These compounds were tested on a variety of test species (assay: Post-emergence herbicidal activity). Details: rate 1000 g/ha, evaluated after 13 days.
Assay type: in vivo
Parameters: key to ABUTH (Abutilon theophrasti) damage score / AMARE (Amaranthus retroflexus) damage score / ALOMY (Alopecurus myosuroides) damage score / ECHCG (Echinochloa crus-galli) damage score / ZEAMX (Zea mays) damage score / SOLNI (Solanum nigrum) damage score: 0 = no damage to plant, 5 = total damage to plant
Method: Seeds of a variety of test species were sown in standard soil in pots. After 8 days cultivation (post-emergence) under controlled conditions in a glasshouse (at 24/16° C., day/night; 14 hours light; 65% humidity), the plants were sprayed with an aqueous spray solution derived from the formulation of the technical active ingredient in acetone/water (50:50) solution containing 0.5% Tween 20 (polyoxyethelyene sorbitan monolaurate, CAS RN 9005-64-5). The test plants were then grown in a glasshouse under controlled conditions (at 24/16° C., day/night; 14 hours light; 65% humidity) and watered twice daily. After 13 days, the test was evaluated (5=total damage to plant; 0=no damage to plant, NC=not captured).

Row | SMILES | ABUTH (Abutilon theophrasti) damage score | ALOMY (Alopecurus myosuroides) damage score | AMARE (Amaranthus retroflexus) damage score | ECHCG (Echinochloa crus-galli) damage score | SETFA (Setaria faberi) damage score | ZEAMX (Zea mays) damage score | SOLNI (Solanum nigrum) damage score
1 | CCC1=C(Br)C(O)N(c2cc(C(C)(C)C#N)ncn2)C1=O (racemic) [CB2] | 3 | 1 | 3 | 1 | 0 | 0 | 
2 | COC1=C(C)C(=O)N(c2cc(Cl)ncn2)C1O (racemic) [CD2] | 2 | 3 | 5 | 3 | 4 | 1 | 
3 | COC1=C(C)C(=O)N(c2cc(C(C)(C)C)ncn2)C1O (racemic) [CD3] | 5 | 5 | 5 | 5 | 5 | 3 | 
4 | COC1=C(C)C(=O)N(c2cc(C(F)(F)F)ncn2)C1O (racemic) [CD4] | 5 | 5 | 3 | 5 | 5 | 1 | 
5 | COC1=C(C)C(=O)N(c2cc(Br)ncn2)C1O (racemic) [CD5] | 3 | 1 | 4 | 1 | 2 | 0 | 
6 | CCN(C)c1cc(N2C(=O)C(C)=C(OC)C2O)ncn1 (racemic) [CD6] | 3 | 2 | 3 | 0 | 2 | 0 | 
7 | COC1=C(C)C(=O)N(c2cc(N(C)C)ncn2)C1O (racemic) [CD7] | 2 | 0 | 2 | 0 | 0 | 0 | 
8 | COC1=C(C)C(=O)N(c2cc(C(C)(C)C#N)ncn2)C1O (racemic) [CD8] | 5 | 5 | 5 | 5 | 5 | 3 | 
9 | COC1=C(Br)C(=O)N(c2cc(C(C)(C)C)ncn2)C1O (racemic) [CE1] | 4 | 2 | 5 | 3 | 4 | 1 | 
10 | COC1=C(Cl)C(=O)N(c2cc(C(C)(C)C)ncn2)C1O (racemic) [CF1] | 4 | 1 | 2 | 4 | 4 | 1 | 
11 | CC1=C(Cl)C(O)N(c2nccc(C(C)(C)C)n2)C1=O (racemic) [DA1] | 4 | 4 | 3 | 4 | 5 | 0 | 
12 | COC1=C(C)C(=O)N(c2nccc(C(C)(C)C)n2)C1O (racemic) [DD1] | 4 | 4 | 4 | 5 | 4 | 1 | 
13 | COC1=C(C)C(=O)N(c2nccc(N(C)C)n2)C1O (racemic) [DD2] | 0 | 0 | 1 | 1 | 0 | 1 | 
14 | COC1=C(C)C(=O)N(c2ncc(Cl)c(N(C)C)n2)C1O (racemic) [DD3] | 3 | 2 | 4 | 2 | 6 | 1 | 
15 | CCO/C=C\c1cnc(N2C(=O)C(C)=C(Cl)C2O)cc1C(F)(F)F (stereo not drawn) [AA1] | 5 | 3 | 5 | 5 | 5 | 1 | 
16 | CC(C)=C(C)c1cnc(N2C(=O)C(C)=C(Cl)C2O)cc1C(F)(F)F (stereo not drawn) [AA2] | 4 | 2 | 5 | 2 | 4 | 2 | 
17 | CC1=C(Cl)C(O)N(c2nccc(C(F)(F)F)c2F)C1=O (stereo not drawn) [AA4] | 1 | 1 | 1 | 0 | 1 | 2 | 
18 | CC1=C(Cl)C(O)N(c2cc(C(C)C)c(C(=O)OC(C)C)cn2)C1=O (stereo not drawn) [AA9] | 4 | 2 | 4 | 1 | 1 | 1 | 
19 | CC1=C(Cl)C(O)N(c2cc(C)c(Br)cn2)C1=O (stereo not drawn) [AA10] | 0 | 1 | 3 | 1 | 2 | 1 | 
20 | CC1=C(Cl)C(O)N(c2cc(C)ccn2)C1=O (stereo not drawn) [AA13] | 5 | 3 | 4 | 4 | 4 | 0 | 
21 | CC1=C(Cl)C(O)N(c2cc(Cl)c(Cl)cn2)C1=O (stereo not drawn) [AA16] | 0 | 1 | 0 | 1 | 3 | 1 | 
22 | CC1=C(Cl)C(O)N(c2cc(C#N)ccn2)C1=O (stereo not drawn) [AA20] | 1 | 1 | 0 | 1 | 1 | 0 | 
23 | CC1=C(Cl)C(O)N(c2cc(C(F)(F)F)c(Br)cn2)C1=O (stereo not drawn) [AA25, 1-[5-bromo-4-(trifluoromethyl)-2-pyridyl]-3-chloro-2-hydroxy-4-methyl-2H-pyrrol-5-one] | 1 | 2 | 5 | 3 | 3 | 1 | 
24 | CC1=C(Cl)C(O)N(c2cc(C(F)(F)F)c(Cl)cn2)C1=O (stereo not drawn) [AA26] | 1 | 2 | 5 | 3 | 3 | 0 | 
25 | CC1=C(Cl)C(O)N(c2cc(Br)ccn2)C1=O (stereo not drawn) [AA31] |  | 1 | 5 | 2 | 3 | 0 | 5
26 | CC1=C(Cl)C(O)N(c2ccc(Cl)cn2)C1=O (stereo not drawn) [AA32] |  | 0 | 0 | 0 | 2 | 0 | 2
27 | CC1=C(Cl)C(O)N(c2cc(Cl)ccn2)C1=O (stereo not drawn) [AA33] |  | 1 | 5 | 2 | 3 | 0 | 5
28 | CC1=C(Cl)C(O)N(c2cc(C(F)(F)F)ccn2)C1=O (stereo not drawn) [AA35] |  | 2 | 5 | 4 | 4 | 0 | 5
29 | CC1=C(Cl)C(O)N(c2ccc(C)cn2)C1=O (stereo not drawn) [AA36] |  | 1 | 4 | 2 | 1 | 0 | 3
30 | CC1=C(Cl)C(O)N(c2ccc(OC(F)(F)F)cn2)C1=O (stereo not drawn) [AA38] | 1 | 1 | 4 | 1 | 1 | 0 | 

Reference: patent publication US9611248B2, “Chemical compounds” (Syngenta Participations AG, priority 2013, dated 2017)
